Laboratory results published in patent US10555987B2, “GHRH agonists for the treatment of ischemic disorders” (UNIVERSITY OF MIAMI, priority 2012, dated 2020).
Where “and” joins values, the source holds several entries; their conditions need not be identical. Equal values may be shown once. Non-standard residues stand in square brackets, D forms with d. Residues, ends and D or L forms follow the SMILES beside them. *: point of attachment. Desaminotyrosyl = O=C(CCc1ccc(O)cc1)*; NMeY = CN[C@@H](Cc1ccc(O)cc1)C(=O)O; Agmatine = N=C(N)NCCCCN*; Nle = CCCC[C@H](N)C(=O)O; Orn = NCCC[C@H](N)C(=O)O; Abu = CC[C@H](N)C(=O)O

Experiments:
GHRH receptor [1] = target: T1, GHRH receptor (Homo sapiens, UniProt Q02643); assay: Receptor binding in vitro, 125I-labeled [His1,Nle27]-hGHRH(1-32)NH2, membrane receptors of human anterior pituitary cells (Table 14); conditions: for Relative affinity (Binding potency) compared to JI-38: JI-38 = 1; for Relative affinity (Binding potency) compared to hGHRH(1-29): hGHRH(1-29)NH2 = 1; for GHRH receptor binding affinity (in words): compared to JI-38
T1 sequence (Q02643 23-423): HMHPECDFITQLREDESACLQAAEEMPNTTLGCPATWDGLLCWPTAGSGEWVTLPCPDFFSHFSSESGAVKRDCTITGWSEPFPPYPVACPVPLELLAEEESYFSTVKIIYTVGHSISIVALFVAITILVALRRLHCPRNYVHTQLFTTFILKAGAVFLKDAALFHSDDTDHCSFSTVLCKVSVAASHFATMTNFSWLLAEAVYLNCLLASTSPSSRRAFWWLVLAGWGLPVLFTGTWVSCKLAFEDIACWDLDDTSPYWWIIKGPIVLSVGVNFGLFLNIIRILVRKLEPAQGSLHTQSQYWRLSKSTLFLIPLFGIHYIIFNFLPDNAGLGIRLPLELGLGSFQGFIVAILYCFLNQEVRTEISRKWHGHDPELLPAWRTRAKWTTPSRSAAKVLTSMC
Excerpt: Normal human pituitary was purchased from the National Hormone and Peptide Program (UCLA Medical Center, Torrance, Calif.).

GHRH receptor [2] = target: T1, GHRH receptor; assay: GHRH receptor binding, competition with 125I-labeled JV-1-42, human pituitary membrane homogenates (Table 7); design: Normal human pituitaries were purchased from the National Hormone and Peptide Program; tissue National Hormone and Peptide Program (A.F. Parlow, Harbor-UCLA Medical Center, Torrance, Calif.); host or cells: normal human pituitary, membrane fraction; conditions: for Relative affinity (Binding potency) vs JI-38: JI-38 = 1, Table 7
Excerpt: Normal human pituitaries were purchased from the National Hormone and Peptide Program (A.F. Parlow, Los Angeles, County Harbor-UCLA Medical Center, Torrance, Calif.).

[3] = system: myocardial infarction (Fisher-344 rats); assay: Serial echocardiography after MI, compared to JI-38 (Example 15, Table 15); type: in vivo, rat; design: key to LVEDD: Left Ventricular End Diastolic Diameter / LVESD: Left Ventricular End Systolic Diameter / VD: Ventricular Diastole / VS: Ventricular Systole / EF: Ejection Fraction / FS: Fraction Shortening: ↓: downward arrow denotes lower than JI-38; ↑: upward arrow denotes greater than JI-38; =denotes same as JI-38; ⬇⬇: double arrow denotes greater effect; ⬆⬆: double arrow denotes greater effect; conditions: for EF: Ejection Fraction / FS: Fraction Shortening / LVEDD: Left Ventricular End Diastolic Diameter / LVESD: Left Ventricular End Systolic Diameter / VD: Ventricular Diastole / VS: Ventricular Systole: in comparison to JI-38
In short: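 Female 6-month-old Fisher-344 rats with permanent left coronary artery ligation received placebo, JI-38 or GHRH agonists subcutaneously twice daily from 2 h post-surgery (10 per group). Under 2% isoflurane, M-mode LVEDD, LVESD and FS plus long-axis EF were measured at baseline, 2 days, 1, 2 and 4 weeks.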

[4] = system: myocardial infarction (Fisher-344 rats); assay: Hemodynamic analysis (pressure-volume loops), body and heart weight after MI, compared to JI-38 (Example 15, Table 16); type: in vivo, rat; design: key to ESP (End-Systolic Pressure) / EDP (End-Diastolic Pressure) / ESV (End-Systolic Volume) / PRSW (Preload Recruitable Stroke Work) / Ees (End-systolic Elastance) / dP/dt max (peak rate of the pressure rise) / dP/dt max_EDV / dP/dt min / TAU (relaxation time constant calculated by Weiss method) / SV (Stroke Volume) / CO (Cardiac Output) / SW (Stroke Work) / EF / Ea/Ees / Ea (arterial Elastance): ↓: downward arrow denotes lower than JI-38; ↑: upward arrow denotes greater than JI-38; =denotes same as JI-38; ⬇⬇: double arrow denotes greater effect; ⬆⬆: double arrow denotes greater effect; conditions: rat MI model, s.c. twice daily; pressure-volume loops; expressed in comparison to JI-38
In short: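 Female 6-month-old Fisher-344 rats after permanent left coronary ligation received GHRH agonists subcutaneously twice daily from 2 h post-surgery (n=10/group). Under ketamine/xylazine/acepromazine anesthesia, LV pressure-volume loops were recorded via carotid micromanometer catheter, calibrated by hypertonic saline bolus and cuvette method; echocardiography also serial.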

| SMILES | Relative affinity (Binding potency) compared to JI-38 (GHRH receptor [1]) | Relative affinity (Binding potency) compared to hGHRH(1-29) (GHRH receptor [1]) | Relative affinity (Binding potency) vs JI-38 (GHRH receptor [2]) | EF: Ejection Fraction [3] | FS: Fraction Shortening [3] | LVEDD: Left Ventricular End Diastolic Diameter [3] | LVESD: Left Ventricular End Systolic Diameter [3] | VD: Ventricular Diastole [3] | VS: Ventricular Systole [3] | CO (Cardiac Output) [4] | EDP (End-Diastolic Pressure) [4] | EF [4] | ESP (End-Systolic Pressure) [4] | ESV (End-Systolic Volume) [4] | Ea (arterial Elastance) [4] | Ea/Ees [4] | Ees (End-systolic Elastance) [4] | PRSW (Preload Recruitable Stroke Work) [4] | SV (Stroke Volume) [4] | SW (Stroke Work) [4] | also measured |
| --- | --- | --- | --- | --- | --- | --- | --- | --- | --- | --- | --- | --- | --- | --- | --- | --- | --- | --- | --- | --- | --- |
| CCCC[C@H](NC(=O)[C@@H](NC(=O)[C@H](CC(=O)O)NC(=O)[C@H](CCC(N)=O)NC(=O)[C@H](CC(C)C)NC(=O)[C@H](CC(C)C)NC(=O)[C@H](CCCN)NC(=O)[C@H](CCCNC(=N)N)NC(=O)[C@H](C)NC(=O)[C@H](CO)NC(=O)[C@H](CC(C)C)NC(=O)[C@H](CCC(N)=O)NC(=O)[C@H](CC)NC(=O)[C@H](CC(C)C)NC(=O)[C@@H](NC(=O)[C@H](CCCN)NC(=O)[C@H](CCCNC(=N)N)NC(=O)[C@H](Cc1ccc(O)cc1)NC(=O)[C@H](CO)NC(=O)[C@H](CCC(N)=O)NC(=O)[C@@H](NC(=O)[C@H](Cc1ccccc1)NC(=O)[C@@H](NC(=O)[C@H](C)NC(=O)[C@H](CC(=O)O)NC(=O)[C@H](C)NC(=O)CCc1ccc(O)cc1)[C@@H](C)CC)[C@@H](C)O)C(C)C)[C@@H](C)CC)C(=O)N[C@@H](CC(=O)O)C(=O)NCCCCNC(=N)N [JI-38, [Dat^1, Gln^8, Orn^12,21, Abu^15, Nle^27, Asp^28, Agm^29]hGHRH(1-29)NH2, reference compound] (Desaminotyrosyl-ADAIFTQSYR[Orn]VL[Abu]QLSAR[Orn]LLQDI[Nle]D-Agmatine) | 1.00 | 2.79 | 1 | – | – | – | – | – | – | – | – | – | – | – | – | – | – | – | – | – | IC50 (GHRH receptor [2]; 125I-JV-1-42, human pituitary membranes, Table 7): 4.35 nM |
| CCCC[C@H](NC(=O)[C@@H](NC(=O)[C@H](CC(=O)O)NC(=O)[C@H](CCC(N)=O)NC(=O)[C@H](CC(C)C)NC(=O)[C@H](CC(C)C)NC(=O)[C@H](CCCN)NC(=O)[C@H](CCCNC(=N)N)NC(=O)[C@H](C)NC(=O)[C@H](CO)NC(=O)[C@H](CC(C)C)NC(=O)[C@H](CCC(N)=O)NC(=O)[C@H](CC)NC(=O)[C@H](CC(C)C)NC(=O)[C@@H](NC(=O)[C@H](CCCN)NC(=O)[C@H](CCCNC(=N)N)NC(=O)[C@H](Cc1ccc(O)cc1)NC(=O)[C@H](CO)NC(=O)[C@H](CCC(N)=O)NC(=O)[C@@H](NC(=O)[C@H](Cc1ccccc1)NC(=O)[C@@H](NC(=O)[C@H](C)NC(=O)[C@H](CC(=O)O)NC(=O)[C@H](C)NC(=O)[C@H](Cc1ccc(O)cc1)NC)[C@@H](C)CC)[C@@H](C)O)C(C)C)[C@@H](C)CC)C(=O)N[C@@H](CC(=O)O)C(=O)NCCCCNC(=N)N [Peptide P-20356, [N—Me-Tyr^1, Gln^8, Orn^12, Abu^15, Orn^21, Nle^27, Asp^28, Agm^29]hGHRH(1-29) NH2] (H-[NMeY]ADAIFTQSYR[Orn]VL[Abu]QLSAR[Orn]LLQDI[Nle]D-Agmatine) | – | 7.50 | 16.11 | = | ⬆⬆ | ⬇⬇ | ⬇⬇ | = | = | = | = | = | = | = | ↑ | = | = | = | = | = | cardiac dimensions (LVEDD and LVESD) ([3]; after MI): reduced cardiac dimensions; cardiac performance (EF and FS) ([3]; after MI): substantial improvement on cardiac performance; TAU (relaxation time constant calculated by Weiss method) [4]: =; dP/dt max (peak rate of the pressure rise) [4]: =; dP/dt max_EDV [4]: =; dP/dt min [4]: =; Relative affinity (Binding potency) compared to JI-38 (GHRH receptor [1]; listed as MR-356): 2.7 and 2.69; GHRH receptor binding affinity (in words) (GHRH receptor [1]): improved receptor binding affinity |
| CCCC[C@H](NC(=O)[C@@H](NC(=O)[C@H](CC(=O)O)NC(=O)[C@H](CCC(N)=O)NC(=O)[C@H](CC(C)C)NC(=O)[C@H](CC(C)C)NC(=O)[C@H](CCCN)NC(=O)[C@H](CCCNC(=N)N)NC(=O)[C@H](C)NC(=O)[C@H](CO)NC(=O)[C@H](CC(C)C)NC(=O)[C@H](CCC(N)=O)NC(=O)[C@H](CC)NC(=O)[C@H](CC(C)C)NC(=O)[C@@H](NC(=O)[C@H](CCCN)NC(=O)[C@H](CCCNC(=N)N)NC(=O)[C@H](Cc1ccc(O)cc1)NC(=O)[C@H](CO)NC(=O)[C@H](CCC(N)=O)NC(=O)[C@@H](NC(=O)[C@H](Cc1ccccc1)NC(=O)[C@@H](NC(=O)[C@H](C)NC(=O)[C@H](CC(=O)O)NC(=O)[C@@H](C)NC(=O)[C@H](Cc1ccc(O)cc1)NC)[C@@H](C)CC)[C@@H](C)O)C(C)C)[C@@H](C)CC)C(=O)N[C@@H](CC(=O)O)C(=O)NCCCCNC(=N)N [Peptide P-20361, [N—Me-Tyr^1, D-Ala^2, Gln^8, Orn^12, Abu^15, Orn^21, Nle^27, Asp^28, Agm^29] hGHRH (1-29)NH2] (H-[NMeY][dA]DAIFTQSYR[Orn]VL[Abu]QLSAR[Orn]LLQDI[Nle]D-Agmatine) | 2.30 | 6.42 | 5.30 | ↓ | = | = | = | = | ↑ | = | ↑ | = | ↑ | ↑ | ↑ | ↓ | ↑ | = | ↓ | ↓ | TAU (relaxation time constant calculated by Weiss method) [4]: ↑; dP/dt max (peak rate of the pressure rise) [4]: =; dP/dt max_EDV [4]: ↑; dP/dt min [4]: =; GHRH receptor binding affinity (in words) (GHRH receptor [1]): improved receptor binding affinity |
